Data reported in patent US20250154135A1, “M-CHOLINE RECEPTOR AGONIST COMPOUND, PREPARATION METHOD THEREFOR AND USE THEREOF” (NANJING GRITPHARMA CO., LTD., priority 2022, published 2025).

Test system: rabbit pupil
Test: Rabbit pupil constriction after single eye drop (Test Example 1)
Assay type: in vivo, New Zealand rabbit
Settings: rabbits, Test Example 1 solutions
Description: Except for group 5), the eye drop solutions of groups 1) to 12) described above contained an equimolar concentration of pilocarpine. The molar concentration of pilocarpine in the eye drop solution of group 5) was half of the molar concentration of pilocarpine in the solutions of the other 11 groups.
The effects of the eye drop solutions of groups 1) to 12) prepared above on rabbit pupil constriction and irritation were tested separately.
• Species and strain: New Zealand rabbit • Grade: normal • Source: Qinglongshan Animal Breeding Farm, Jiangning District, Nanjing • Production license No.: SCXK (Su) 2016-0008 • Animal age: about 110 days old at the time of administration • Animal body weight: about 2.5-3.5 kg at the time of administration • Animal sex: all male • Feed: rabbit pellet feed • Housing conditions: air-conditioned room, with a temperature of 18-26° C. and a relative humidity of 40%-80%.
• Digital vernier caliper: specification: 0-150 mm; measurement accuracy: 0.01 mm; manufacturer: Guilin Guanglu Measuring Instrument Co., Ltd.
Each rabbit was subjected to eye drop administration in the left eye (using a pipette), with an administration volume of 100 μL.
• Number of animals: for JQ series compounds, 6 rabbits per compound; for compounds 1, 2 and 4, 5 rabbits per compound. • Administration schedule: single administration. Measurement indicators and time points: • for JQ series compounds, the pupil diameter of the left eye of the rabbits was measured at time points of −0.5 h (i.e., half an hour before administration), 5 min, 10 min, 15 min, 0.5 h, 3 h and 4 h relative to administration, with the measurement repeated 3 times for each rabbit at each time point (measurement time points were extended if necessary); • for compounds 1, 2 and 4, the pupil diameter of the left eye of the rabbits was measured at time points of 3 h and 4 h relative to administration, with the measurement repeated 3 times for each rabbit at each time point (measurement time points were extended if necessary).
Percentage change in pupil diameter (%) after administration=(pupil diameter after administration−pupil diameter before administration)/pupil diameter before administration×100%
The measurement result for each rabbit at each time point was represented by the average value of three measurements.

SMILES	pupil constriction (miosis) effect at 3 h after administration
CC[C@@H]1C(=O)OC[C@@H]1Cc1cncn1C [Compound 1]	still showed miosis effect
CC[C@@H]1C(=O)OC[C@@H]1Cc1cncn1C [Compound 2]	still showed miosis effect
